Assay results taken from patent US9089509B2, “Method of treatment of age-related macular degeneration” (YEDA RESEARCH AND DEVELOPMENT CO., LTD., priority 2006, dated 2015).

What was measured:
[1] = test system: neural stem/progenitor cells (NPCs) co-cultured with microglia; assay: Co-culture of GFP-expressing neural progenitor cells with treated microglia, neurogenesis (GFP+/βIII-T+ cells); format: cell-based, mouse
Procedure: Coronal sections (2 mm thick) of tissue containing the subventricular zone of the lateral ventricle were obtained from the brains of adult C57Bl/6J mice. The tissue was minced and then incubated for digestion at 37° C., 5% CO2 for 45 min in Earle's balanced salt solution containing 0.94 mg/ml papain (Worthington, Lakewood, N.J.) and 0.18 mg/ml of L-cysteine and EDTA. After centrifugation at 110×g for 15 min at room temperature, the tissue was mechanically dissociated by pipette trituration. Cells obtained from single-cell suspensions were plated (3500 cells/cm^2) in 75-cm^2 Falcon tissue-culture flasks (BD Biosciences, San Diego, Calif.), in neural stem/progenitor cell (NPC)-culturing medium [Dulbecco's modified Eagles's medium (DMEM)/F12 medium (Gibco/Invitrogen, Carlsbad, Calif.) containing 2 mM L-glutamine, 0.6% glucose, 9.6 μg/ml putrescine, 6.3 ng/ml progesterone, 5.2 ng/ml sodium selenite, 0.02 mg/ml insulin, 0.1 mg/ml transferrin, 2 μg/ml heparin (all from Sigma-Aldrich, Rehovot, Israel), fibroblast growth factor-2 (human recombinant, 20 ng/ml), and epidermal growth factor (human recombinant, 20 ng/ml; both from Peprotech, Rocky Hill, N.J.)]. Spheres were passaged every 4-6 days and replated as single cells. Green fluorescent protein (GFP)-expressing NPCs were obtained as previously described (Pluchino et al., 2003).
Brains from neonatal (P0-P1) C57Bl/6J mice were stripped of their meninges and minced with scissors under a dissecting microscope (Zeiss, Stemi DV4, Germany) in Leibovitz-15 medium (Biological Industries, Kibbutz Beit Ha-Emek, Israel). After trypsinization (0.5% trypsin, 10 min, 37° C./5% CO2), the tissue was triturated. The cell suspension was washed in culture medium for glial cells [DMEM supplemented with 10% fetal calf serum (FCS; Sigma-Aldrich, Rehovot), L-glutamine (1 mM), sodium pyruvate (1 mM), penicillin (100 U/ml), and streptomycin ([…])] and cultured at 37° C./5% CO2 in 75-cm^2 Falcon tissue-culture flasks (BD Biosciences) coated with poly-D-lysine (PDL) (10 mg/ml; Sigma-Aldrich, Rehovot) in borate buffer (2.37 g borax and 1.55 g boric acid dissolved in 500 ml sterile water, pH 8.4) for 1 h, then rinsed thoroughly with sterile, glass-distilled water. Half of the medium was changed after 6 h in culture and every 2nd day thereafter, starting on day 2, for a total culture time of 10-14 days. […]

microglia = assay: CD11c expression and morphology in primary culture of mouse microglia; format: cell-based; settings: microglia, 10 ng/ml (FIGS. 8A-8D)
Procedure: Brains from neonatal (P0-P1) C57Bl/6J mice were stripped of their meninges and minced with scissors under a dissecting microscope (Zeiss, Stemi DV4, Germany) in Leibovitz-15 medium (Biological Industries, Kibbutz Beit Ha-Emek, Israel). After trypsinization (0.5% trypsin, 10 min, 37° C./5% CO2), the tissue was triturated. The cell suspension was washed in culture medium for glial cells [DMEM supplemented with 10% fetal calf serum (FCS; Sigma-Aldrich, Rehovot), L-glutamine (1 mM), sodium pyruvate (1 mM), penicillin (100 U/ml), and streptomycin ([…])] and cultured at 37° C./5% CO2 in 75-cm^2 Falcon tissue-culture flasks (BD Biosciences) coated with poly-D-lysine (PDL) (10 mg/ml; Sigma-Aldrich, Rehovot) in borate buffer (2.37 g borax and 1.55 g boric acid dissolved in 500 ml sterile water, pH 8.4) for 1 h, then rinsed thoroughly with sterile, glass-distilled water. Half of the medium was changed after 6 h in culture and every 2nd day thereafter, starting on day 2, for a total culture time of 10-14 days. Microglia were shaken off the primary mixed brain glial cell cultures (150 rpm, 37° C., 6 h) with maximum yields between days 10 and 14, seeded (10^5 cells/ml) onto PDL-pretreated 24-well plates (1 ml/well; Corning, N.Y., N.Y.), and grown in culture medium for microglia [RPMI-1640 medium (Sigma-Aldrich, Rehovot) supplemented with 10% FCS, L-glutamine (1 mM), sodium pyruvate (1 mM), β-mercaptoethanol ([…]), penicillin (100 U/ml), and streptomycin ([…])]. The cells were allowed to adhere to the surface of a PDL-coated culture flask (30 min, 37° C./5% CO2), and non-adherent cells were rinsed off.
Cover slips from co-cultures of NPCs and mouse microglia were washed with PBS, fixed as described above, treated with a permeabilization/blocking solution containing 10% FCS, 2% bovine serum albumin, 1% glycine, and 0.1% Triton X-100 (Sigma-Aldrich, Rehovot), and stained with a combination of mouse anti-[…] (anti-βIII-T) isoform C-terminus antibodies (1:500; Chemicon, Temecula, Calif.), rat anti-CD11b (MAC1; 1:50; BD—Pharmingen, Franklin Lakes, N.J.) and hamster anti-CD11c (1:100; eBioscience, San Diego, Calif.). To capture the microglia FITC- or Cy3-conjugated Bandeiraea simplicifolia isolectin B4 (IB-4; 1:50; Sigma-Aldrich, Rehovot) was used. To detect expression of human Aβ anti-Aβ (human amino-acid residues 1-17) (mouse, clone 6E10; Chemicon) was used.
On the basis of our previous findings, we suspected that the switch from a CD11b^+/CD11c^−/IGF-1^− to a CD11b^+/CD11c^+/IGF-I^+ microglial phenotype in the Cop-1 vaccinated Tg-AD mice might be attributable to IL-4. We examined this possibility in vitro. […] In contrast, the expression of CD11c induced by IL-4 was not transient. Quantification of the ability of IL-4 to induce CD11c expression even after the microglia were pretreated with Aβ is shown in FIG. 4D.
Thus, upregulation of CD11c on bone marrow derived myeloid cells by […] will allow the cells to reach injured sites and induce beneficial effect.

Row | Substance | effect of microglia activated by aggregated Aβ(1-40) on neurogenesis and NPC number ([1]; aggregated Aβ(1-40) 5 μM, 48 h pre-incubation, co-culture 10 days) | counteracting the negative effect of Aβ-activated microglia on NPC survival and differentiation ([1]; cytokine 10 ng/ml added for 48 h after 48 h aggregated Aβ(1-40) 5 μM) | numbers of GFP+/βIII-T+ cells in co-cultures of NPCs with activated microglia ([1]; microglia activated with 10 ng/ml, co-culture 10 days, vs microglia-free control) | time to peak of CD11c upregulation after activation (microglia) [days]
1 | Aβ(1-40): β-amyloid peptide fragment 1-40, aggregated | blocked neurogenesis and decreased the number of NPCs | – | – | –
2 | IFN-γ: recombinant mouse IFN-γ | – | failed to reverse their negative effect on neurogenesis | dramatic increase | 2 to 3
